Experimental data reported in paper PMC6426286 (2019).

Tests used:
[1] = system: G. violaceus P1 stem-loop used for crystallization (RNA, riboswitch, 5-bromocytidine at 17) GGUGGGGACGACCCCACC; assay: X-ray crystallography, 1.54 Å; conditions: 100 mM KCl, 2 mM MgCl2 (RNA folding); ligand soaked into ligand-free crystals; 5 mM HEPES pH 7.6 (RNA folding)
[2] = system: GVP1P2 (complete guanidine-II riboswitch) (RNA, riboswitch) GGUGAGGACGACCUCACCCUUCGCAAAGUUUCGCGGGGACGACCCCGC; assay: ITC; conditions: 100 mM KCl, 10 mM MgCl2; 40 mM HEPES pH 7.2, 298 K; one-set-of-sites fit
[3] = system: GVP1 (guanidine-II riboswitch P1 stem-loop) (RNA, riboswitch) GGUGGGGACGACCCCACC; assay: ITC; conditions: 100 mM KCl, 10 mM MgCl2; 40 mM HEPES pH 7.2, 298 K; one-set-of-sites fit
[4] = system: GVP2 (guanidine-II riboswitch P2 stem-loop) (RNA, riboswitch) GCGGGGACGACCCCGC; assay: ITC; conditions: 100 mM KCl, 10 mM MgCl2; 40 mM HEPES pH 7.2, 298 K; one-set-of-sites fit
[5] = system: G. violaceus P1 stem-loop used for crystallization (RNA, riboswitch, 5-bromocytidine at 17) GGUGGGGACGACCCCACC; assay: X-ray crystallography, 1.41 Å; conditions: 100 mM KCl, 2 mM MgCl2 (RNA folding); ligand soaked into ligand-free crystals; 5 mM HEPES pH 7.6 (RNA folding)
[6] = system: G. violaceus P1 stem-loop used for crystallization (RNA, riboswitch, 5-bromocytidine at 17) GGUGGGGACGACCCCACC; assay: X-ray crystallography, 1.66 Å; conditions: 100 mM KCl, 2 mM MgCl2 (RNA folding); ligand soaked into ligand-free crystals; 5 mM HEPES pH 7.6 (RNA folding)

binding [1]	Kd [2]	Kd [3]	Kd [4]	binding [5]	binding [6]	SMILES
yes						CCNC(=N)N
	33 ± 4 µM	68 ± 6 µM	66 ± 8 µM			N=C(N)N
	5.1 ± 0.8 µM			yes		N=C(N)NCCCCCNC(=N)N
	2.2 ± 0.5 µM	4.7 ± 0.2 µM	5.9 ± 4 µM		yes	N=C(N)NCCCCNC(=N)N
